# Measurements reported in patent US20090098139A1, “Combination therapy for the treatment of neovascular disorders” (priority 2006, published 2009).
# How the values were obtained:
# [1] = test system: animal counterpart of isoform 165; assay: preclinical animal studies: abnormal blood vessel growth in the retina; assay type: in vivo; conditions: binding to animal counterpart of VEGF isoform 165
# [2] = test system: normal vessels of the retina; assay: animal study, direct comparison with a VEGF inhibitor that blocks all isoforms: normal retinal vessels; assay type: in vivo; conditions: the pan-VEGF isoform inhibitor comparator altered their growth and survival
# [3] = test system: animal counterpart of isoform 121; assay: preclinical binding to VEGF isoform 121 counterpart; conditions: preclinical in vitro and animal studies
substance,measurement,setting,value
pegaptanib sodium [Macugen],inhibition of abnormal blood vessel growth in the retina,[1],highly effective in inhibiting abnormal blood vessel growth in the retina
same,effect on the normal vessels of the retina,[2],did not affect the normal vessels of the retina
same,binding with the animal counterpart of isoform 121,[3],did not bind with the animal counterpart of isoform 121 to any significant degree
